Test results taken from ChEMBL document CHEMBL4219213, “The design, synthesis and structure-activity relationships associated with C28 amine-based betulinic acid derivatives as inhibitors of HIV-1 maturation” (Bioorg Med Chem Lett, 2018).

How the values were obtained:
[1] = in vitro; settings: mouse, liver microsomes
Description: Half life in mouse liver microsomes at 0.5 uM in presence of NADPH by LC-MS/MS method

[2] = cells; settings: Human immunodeficiency virus 1, subtype B NL4-3, MT2
[3] = in vitro; settings: human, MT2 cells
Description: Cytotoxicity against human MT2 cells

[4] = in vitro; settings: rat, liver microsomes
Description: Half life in rat liver microsomes at 0.5 uM in presence of NADPH by LC-MS/MS method

[5] = in vitro; settings: human, liver microsomes
Description: Half life in human liver microsomes at 0.5 uM in presence of NADPH by LC-MS/MS method

[6] = in vivo; settings: Sprague-Dawley, rat, po, 5 mg/kg

SMILES	half-life at 0.5 µM [1] [h]	IC50 [2] [nM]	CC50 [3] [nM]	half-life at 0.5 µM [4] [h]	half-life at 0.5 µM [5] [h]	AUC(0-t) at 6 h [6] [µM·h]
C=C(C)[C@@H]1CC[C@]2(CN(CCCN3CCS(=O)(=O)CC3)C3CC3)CC[C@]3(C)[C@H](CC[C@@H]4[C@@]5(C)CC=C(c6ccc(C(=O)O)cc6)C(C)(C)[C@@H]5CC[C@]43C)[C@@H]12	> 2	43	7000	> 2	> 2	
C=C(C)[C@@H]1CC[C@]2(CNCCCN(C)c3ccccc3)CC[C@]3(C)[C@H](CC[C@@H]4[C@@]5(C)CC=C(c6ccc(C(=O)O)cc6)C(C)(C)[C@@H]5CC[C@]43C)[C@@H]12	> 2	60	11000	> 2	> 2	0.962
C=C(C)[C@@H]1CC[C@]2(CNC(=O)CNC)CC[C@]3(C)[C@H](CC[C@@H]4[C@@]5(C)CC=C(c6ccc(C(=O)O)cc6)C(C)(C)[C@@H]5CC[C@]43C)[C@@H]12		27	16000			0.54
C=C(C)[C@@H]1CC[C@]2(CNCCCN)CC[C@]3(C)[C@H](CC[C@@H]4[C@@]5(C)CC=C(c6ccc(C(=O)O)cc6)C(C)(C)[C@@H]5CC[C@]43C)[C@@H]12	> 2	40	120	> 2	> 2	
C=C(C)[C@@H]1CC[C@]2(CNCCN(CC)CC)CC[C@]3(C)[C@H](CC[C@@H]4[C@@]5(C)CC=C(c6ccc(C(=O)O)cc6)C(C)(C)[C@@H]5CC[C@]43C)[C@@H]12	> 2	35	20000	1.3	> 2	
C=C(C)[C@@H]1CC[C@]2(CNCCc3ccccn3)CC[C@]3(C)[C@H](CC[C@@H]4[C@@]5(C)CC=C(c6ccc(C(=O)O)cc6)C(C)(C)[C@@H]5CC[C@]43C)[C@@H]12			7400			
C=C(C)[C@@H]1CC[C@]2(CNCCCNCCO)CC[C@]3(C)[C@H](CC[C@@H]4[C@@]5(C)CC=C(c6ccc(C(=O)O)cc6)C(C)(C)[C@@H]5CC[C@]43C)[C@@H]12		18	320	> 2	> 2	
C=C(C)[C@@H]1CC[C@]2(CNCCN(CCO)CCO)CC[C@]3(C)[C@H](CC[C@@H]4[C@@]5(C)CC=C(c6ccc(C(=O)O)cc6)C(C)(C)[C@@H]5CC[C@]43C)[C@@H]12		8.4	6800			
C=C(C)[C@@H]1CC[C@]2(CNCCCO)CC[C@]3(C)[C@H](CC[C@@H]4[C@@]5(C)CC=C(c6ccc(C(=O)O)cc6)C(C)(C)[C@@H]5CC[C@]43C)[C@@H]12		55	4600	> 2	> 2	
C=C(C)[C@@H]1CC[C@]2(CNCCN3CCN(C)CC3)CC[C@]3(C)[C@H](CC[C@@H]4[C@@]5(C)CC=C(c6ccc(C(=O)O)cc6)C(C)(C)[C@@H]5CC[C@]43C)[C@@H]12		14	970			
C=C(C)[C@@H]1CC[C@]2(CNCCN(C(C)C)C(C)C)CC[C@]3(C)[C@H](CC[C@@H]4[C@@]5(C)CC=C(c6ccc(C(=O)O)cc6)C(C)(C)[C@@H]5CC[C@]43C)[C@@H]12		35	3700			
C=C(C)[C@@H]1CC[C@]2(CNCCN3CCNCC3)CC[C@]3(C)[C@H](CC[C@@H]4[C@@]5(C)CC=C(c6ccc(C(=O)O)cc6)C(C)(C)[C@@H]5CC[C@]43C)[C@@H]12			2300	1.43	> 2	
C=C(C)[C@@H]1CC[C@]2(CNCCCN3CCCCC3)CC[C@]3(C)[C@H](CC[C@@H]4[C@@]5(C)CC=C(c6ccc(C(=O)O)cc6)C(C)(C)[C@@H]5CC[C@]43C)[C@@H]12	1.5	6.4	240	1.37	1.32	
C=C(C)[C@@H]1CC[C@]2(CNCCNCCO)CC[C@]3(C)[C@H](CC[C@@H]4[C@@]5(C)CC=C(c6ccc(C(=O)O)cc6)C(C)(C)[C@@H]5CC[C@]43C)[C@@H]12		20	2000	1.95	> 2	
C=C(C)[C@@H]1CC[C@]2(CNCCn3ccnc3)CC[C@]3(C)[C@H](CC[C@@H]4[C@@]5(C)CC=C(c6ccc(C(=O)O)cc6)C(C)(C)[C@@H]5CC[C@]43C)[C@@H]12		9.3	12000			0.223
C=C(C)[C@@H]1CC[C@]2(CNCCN3CCCCC3)CC[C@]3(C)[C@H](CC[C@@H]4[C@@]5(C)CC=C(c6ccc(C(=O)O)cc6)C(C)(C)[C@@H]5CC[C@]43C)[C@@H]12		37	4000			
C=C(C)[C@@H]1CC[C@]2(CN(CCN(C)C)C(=O)CCC(=O)O)CC[C@]3(C)[C@H](CC[C@@H]4[C@@]5(C)CC=C(c6ccc(C(=O)O)cc6)C(C)(C)[C@@H]5CC[C@]43C)[C@@H]12		650	30000			4.39
C=C(C)[C@@H]1CC[C@]2(CNCCCN(C)C)CC[C@]3(C)[C@H](CC[C@@H]4[C@@]5(C)CC=C(c6ccc(C(=O)O)cc6)C(C)(C)[C@@H]5CC[C@]43C)[C@@H]12		200	4500			0.01
C=C(C)[C@@H]1CC[C@]2(CNCCNC(C)=O)CC[C@]3(C)[C@H](CC[C@@H]4[C@@]5(C)CC=C(c6ccc(C(=O)O)cc6)C(C)(C)[C@@H]5CC[C@]43C)[C@@H]12		37	6300			
C=C(C)[C@@H]1CC[C@]2(CNCCc3ccc(S(N)(=O)=O)cc3)CC[C@]3(C)[C@H](CC[C@@H]4[C@@]5(C)CC=C(c6ccc(C(=O)O)cc6)C(C)(C)[C@@H]5CC[C@]43C)[C@@H]12		16	2400			0.288
C=C(C)[C@@H]1CC[C@]2(C(=O)O)CC[C@]3(C)[C@H](CC[C@@H]4[C@@]5(C)CC=C(c6ccc(C(=O)O)cc6)C(C)(C)[C@@H]5CC[C@]43C)[C@@H]12	> 2	> 6000		> 2	> 2	
C=C(C)[C@@H]1CC[C@]2(CNCCN3CCS(=O)(=O)CC3)CC[C@]3(C)[C@H](CC[C@@H]4[C@@]5(C)CC=C(c6ccc(C(=O)O)cc6)C(C)(C)[C@@H]5CC[C@]43C)[C@@H]12	> 2	6	2600	1.8	> 2	2.05
C=C(C)[C@@H]1CC[C@]2(CNCCCN3CCN(C)CC3)CC[C@]3(C)[C@H](CC[C@@H]4[C@@]5(C)CC=C(c6ccc(C(=O)O)cc6)C(C)(C)[C@@H]5CC[C@]43C)[C@@H]12	> 2	16	700	> 2	> 2	
C=C(C)[C@@H]1CC[C@]2(CNCCCN3CCCC3=O)CC[C@]3(C)[C@H](CC[C@@H]4[C@@]5(C)CC=C(c6ccc(C(=O)O)cc6)C(C)(C)[C@@H]5CC[C@]43C)[C@@H]12		9.9	5800			1.04
